Source: patent US20240131168A1, “NAPHTHALENE RING-CONTAINING COMPOUND, PHARMACEUTICAL COMPOSITION CONTAINING SAME, AND USE THEREOF” (JIANGSU YAHONG MEDITECH CO., LTD., priority 2021, published 2024)
pIC50: −log10 of the molar value.

Tests used:
Assay type in all cases: cell-based
[1] = test system: TamR-MCF-7; assay: CellTiter-Glo cell proliferation inhibition, TamR-MCF-7; conditions: 144 h; TamR-MCF-7 (CTG), 6 days, starting concentration 10 μM; read-out: IH % max (maximum inhibition percentage)
In short: (§1)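 MCF-7, TamR-MCF-7, and CRISPR-edited MCF-7 ER D538G or Y537S cells were seeded at 1,000 or 2,000 cells/well in EMEM and cultured 24 h. They were then exposed to a 4-fold, 10-point series (top 10 µM before addition to wells) for 6 days or 72 h at 37 °C. CellTiter-Glo luminescence gave IC50 and maximum % inhibition.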

[2] = test system: MCF-7 ER^D538G; assay: CellTiter-Glo cell proliferation inhibition, MCF-7 ER^D538G; conditions: Homo sapiens, MCF7, 144 h, MCF-7 ER^D538G (CTG), 6 days, starting concentration 10 μM; for inhibition at up to 10 µM: read-out: IH % max (maximum inhibition percentage)
In short: as §1

[3] = test system: MCF-7 ER^Y537S; assay: CellTiter-Glo cell proliferation inhibition, MCF-7 ER^Y537S; conditions: Homo sapiens, MCF7, 144 h; MCF-7 ER^Y537S (CTG), 6 days, starting concentration 10 μM; read-out: IH % max (maximum inhibition percentage)
In short: as §1

[4] = test system: MDA-MB-231; assay: CellTiter-Glo cell proliferation inhibition, MDA-MB-231; conditions: Homo sapiens, 144 h; MDA-MB-231 (CTG), 6 days, starting concentration 10 μM; read-out: IH % max (maximum inhibition percentage)
[5] = test system: MDA-MB-468; assay: CellTiter-Glo cell proliferation inhibition, MDA-MB-468; conditions: Homo sapiens, 144 h; MDA-MB-468 (CTG), 6 days, starting concentration 10 μM; read-out: IH % max (maximum inhibition percentage)

Compound	inhibition at up to 10 µM [1] [%]	inhibition at up to 10 µM [2] [%]	pIC50 [2]	inhibition at up to 10 µM [3] [%]	inhibition at up to 10 µM [4] [%]	inhibition at up to 10 µM [5] [%]
CS(=O)(=O)c1ccc(-c2ccc3cc(O)ccc3c2Oc2ccc(OCCOCCOCCOCCN3CCN(c4ccc5c(c4)C(=O)N(C4CCC(=O)NC4=O)C5=O)CC3)cc2)cc1 (stereo not shown) [Compound D19]	39	73	–	–	–	–
CCN(CCOCCOCCN1CCN(c2ccc3c(c2)C(=O)N(C2CCC(=O)NC2=O)C3=O)CC1)CCOc1ccc(Oc2c(-c3ccc(S(C)(=O)=O)cc3)ccc3cc(O)ccc23)cc1 (stereo not shown) [Compound D28, 2-(2,6-dioxopiperidin-3-yl)-5-(4-(2-(2-(2-(ethyl(2-(4-((6-hydroxy-2-(4-(methylsulfonyl)phenyl)naphthalen-1-yl)oxy)phenoxy)ethyl)amino)ethoxy)ethoxy)ethyl)piperazin-1-yl)isoindoline-1,3-dione]	42	81	6.25	49	68	–
CCN(CCOc1ccc(Oc2c(-c3ccc(S(C)(=O)=O)cc3)ccc3cc(O)ccc23)cc1)C(=O)c1ccc(CCC2CCN(C3CCN(c4ccc5c(c4)C(=O)N(C4CCC(=O)NC4=O)C5=O)CC3)CC2)cc1 (stereo not shown) [Compound D34, 4-(2-(1′-(2-(2,6-dioxopiperidin-3-yl)-1,3-dioxoisoindolin-5-yl)-[1,4′-bipiperidin]-4-yl)ethyl)-N-ethyl-N-(2-(4-((6-hydroxy-2-(4-(methylsulfonyl)phenyl)naphthalen-1-yl)oxy)phenoxy)ethyl)benzamide]	41	82	6.74	60	37	–
CS(=O)(=O)c1ccc(-c2ccc3cc(O)ccc3c2Oc2ccc(OCCOCCOCCN3CCN(c4ccc5c(c4)C(=O)N(C4CCC(=O)NC4=O)C5)CC3)cc2)cc1 (stereo not shown) [Compound D22, 3-(6-(4-(2-(2-(2-(4-((6-hydroxy-2-(4-(methylsulfonyl)phenyl)naphthalen-1-yl)oxy)phenoxy)ethoxy)ethoxy)ethyl)piperazin-1-yl)-1-oxoisoindolin-2-yl)piperidine-2,6-dione]	33	61	–	–	36	–
CS(=O)(=O)c1ccc(-c2ccc3cc(O)ccc3c2Oc2ccc(N3CCN(CCCCCOCC(=O)N4CCN(c5ccc6c(c5)CN(C5CCC(=O)NC5=O)C6=O)CC4)CC3)cc2)cc1 (stereo not shown) [Compound D11, 3-(5-(4-(2-((5-(4-(4-((6-hydroxy-2-(4-(methylsulfonyl)phenyl)naphthalen-1-yl)oxy)phenyl)piperazin-1-yl)pentyl)oxy)acetyl)piperazin-1-yl)-1-oxoisoindolin-2-yl)piperidine-2,6-dione]	–	54	6.10	52	–	–
CS(=O)(=O)c1ccc(-c2ccc3cc(O)ccc3c2Oc2ccc(OCCOCCOCCOCCN3CCN(c4ccc5c(c4)C(=O)N(C4CCC(=O)NC4=O)C5)CC3)cc2)cc1 (stereo not shown) [Compound D21]	–	55	–	–	–	–
CS(=O)(=O)c1ccc(-c2ccc3cc(O)ccc3c2Oc2ccc(OCCOCCOCCN3CCN(c4ccc5c(c4)CN(C4CCC(=O)NC4=O)C5=O)CC3)cc2)cc1 (stereo not shown) [Compound D30]	30	65	–	–	–	–
CS(=O)(=O)c1ccc(-c2ccc3cc(O)ccc3c2Oc2ccc(OCCOCCOCCOCCOc3ccc4c(c3)C(=O)N(C3CCC(=O)NC3=O)C4)cc2)cc1 (stereo not shown) [Compound D35, 3-(6-(2-(2-(2-(2-(4-((6-hydroxy-2-(4-(methylsulfonyl)phenyl)naphthalen-1-yl)oxy)phenoxy)ethoxy)ethoxy)ethoxy)ethoxy)-1-oxoisoindolin-2-yl)piperidine-2,6-dione]	–	39	–	–	–	–
C[C@@H]1CN(CCOc2ccc(Oc3c(-c4ccc(S(C)(=O)=O)cc4)ccc4cc(O)ccc34)cc2)[C@@H](C)CN1CCOCC(=O)N1CCN(c2ccc3c(c2)CN(C2CCC(=O)NC2=O)C3=O)CC1 (stereo partly drawn) [Compound D9, 3-(5-(4-(2-(2-((2R,5S)-4-(2-(4-((6-hydroxy-2-(4-(methylsulfonyl)phenyl)naphthalen-1-yl)oxy)phenoxy)ethyl)-2,5-dimethylpiperazin-1-yl)ethoxy)acetyl)piperazin-1-yl)-1-oxoisoindolin-2-yl)piperidine-2,6-dione]	31	65	6.02	34	–	60
CCN(CCCCCN(C)CC(=O)N1CCN(c2ccc3c(c2)C(=O)N(C2CCC(=O)NC2=O)C3=O)CC1)CCOc1ccc(Oc2c(-c3ccc(S(C)(=O)=O)cc3)ccc3cc(O)ccc23)cc1 (stereo not shown) [Compound D31, 2-(2,6-dioxopiperidin-3-yl)-5-(4-(N-(5-(ethyl(2-(4-((6-hydroxy-2-(4-(methylsulfonyl))phenyl)naphthalen-1-yl)oxy)phenoxy)ethyl)aminopentyl)-N-methylglycyl)piperazin-1-yl)isoindoline-1,3-dione]	–	90	–	73	56	100
C[C@@H]1CN(CCOCC(=O)N2CCN(c3ccc4c(c3)C(=O)N(C3CCC(=O)NC3=O)C4=O)CC2)[C@@H](C)CN1CCOc1ccc(Oc2c(-c3ccc(S(C)(=O)=O)cc3)ccc3cc(O)ccc23)cc1 (stereo partly drawn) [Compound D15, 2-(2,6-dioxopiperidin-3-yl)-5-(4-(2-(2-((2S,5R)-4-(2-(4-((6-hydroxy-2-(4-(methylsulfonyl)phenyl)naphthalen-1-yl)oxy)phenoxy)ethyl)-2,5-dimethylpiperazin-1-yl)ethoxy)acetyl)piperazin-1-yl)isoindoline-1,3-dione]	–	48	–	46	–	–
CCN(CCOc1ccc(Oc2c(-c3ccc(S(C)(=O)=O)cc3)ccc3cc(O)ccc23)cc1)CC(=O)N1CCN(c2ccc3c(c2)C(=O)N(C2CCC(=O)NC2=O)C3=O)CC1 (stereo not shown) [Compound D8, 2-(2,6-dioxopiperidin-3-yl)-5-(4-(N-ethyl-N-(2-(4-((6-hydroxy-2-(4-(methylsulfonyl)phenyl)naphthalen-1-yl)oxy)phenoxy)ethyl)glycyl)piperazin-1-yl)isoindoline-1,3-dione]	35	44	–	33	–	68
